Test [1] has as its target PD-L1 His protein / PD-1 Fc protein (Homo sapiens (Human), UniProt Q9NZQ7). Briefly: HTRF Assay (PD-1/PD-L1 interaction). Particulars: PD-L1 His 6 nM, PD-1 Fc 6 nM. It is filed as binding.
The next test has as its target human PD-L1 (Homo sapiens (Human), UniProt Q9NZQ7). Briefly: T cell activation luciferase reporter cell culture system (T Cell Activation Assay). It is filed as cell-based. To be noted: luciferase reporter assay; PD-L1 aAPC/CHO-K1 cells with PD-1 effector Jurkat T cells.

Chain of PD-L1 His protein / PD-1 Fc protein (Q9NZQ7 19-238): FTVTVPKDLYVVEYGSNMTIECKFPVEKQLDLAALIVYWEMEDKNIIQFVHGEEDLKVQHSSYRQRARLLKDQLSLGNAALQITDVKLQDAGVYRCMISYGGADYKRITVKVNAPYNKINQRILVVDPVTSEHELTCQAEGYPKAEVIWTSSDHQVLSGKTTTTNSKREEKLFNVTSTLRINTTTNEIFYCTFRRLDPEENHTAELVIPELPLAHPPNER
Chain of human PD-L1 (Q9NZQ7 19-290): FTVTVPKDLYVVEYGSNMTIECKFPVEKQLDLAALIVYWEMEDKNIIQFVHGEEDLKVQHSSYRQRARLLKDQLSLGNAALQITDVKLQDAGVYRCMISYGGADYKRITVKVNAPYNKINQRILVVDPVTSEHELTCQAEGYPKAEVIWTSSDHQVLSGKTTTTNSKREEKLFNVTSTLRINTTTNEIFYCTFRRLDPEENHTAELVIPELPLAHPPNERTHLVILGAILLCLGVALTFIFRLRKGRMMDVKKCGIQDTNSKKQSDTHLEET

The term IC50 denotes the concentration at which inhibition is half-maximal. Read a high IC50 as weaker potency. As a reminder, the EC50 is the concentration at which the effect is half-maximal. Low values mean higher potency in that assay, high ones lower potency in that assay. `COCC(=O)N1CCC(NCc2ccc(-c3nccc(-c4cccc(-c5ccc(CNC6CCN(C(=O)COC)CC6)c(OC)n5)c4C(F)(F)F)c3Cl)cc2OC)CC1` [Example 602, 1-(4-(((6-(3-(3-Chloro-2-(3-methoxy-4-(((1-(2-methoxyacetyl)piperidin-4-yl)amino)methyl)phenyl)pyridin-4-yl)-2-(trifluoromethyl)phenyl)-2-methoxypyridin-3-yl)methyl)amino)piperidin-1-yl)-2-methoxyethan-1-one] had an IC50 in test [1] of 41.3 nM. Further, the EC50 at human PD-L1 was at least 10000 nM.

The compound `COc1cc(-c2nccc(-c3cccc(-c4ccc(CNC[C@@H]5CCC(=O)N5)c(OC)n4)c3C(F)(F)F)c2Cl)ccc1CNC[C@@H]1CCC(=O)N1` [Example 610, (S)-5-((((6-(3-(3-Chloro-2-(3-methoxy-4-(((((S)-5-oxopyrrolidin-2-yl)methyl)amino)methyl)phenyl)pyridin-4-yl)-2-(trifluoromethyl)phenyl)-2-methoxypyridin-3-yl)methyl)amino)methyl)pyrrolidin-2-one] had an IC50 in test [1] of 1.52 nM. At human PD-L1, the midpoint of the response, the EC50, lay at 2110 nM.

On to `COc1nc(-c2cccc(-c3ccnc(-c4cc(OC)c5nc(CN6CC(C)(O)C6)nn5c4)c3Cl)c2Cl)ccc1CNC1CCN(C(C)=O)CC1` [Example 637, 1-(4-(((6-(2-chloro-3-(3-chloro-2-(2-((3-hydroxy-3-methylazetidin-1-yl)methyl)-8-methoxy-[1,2,4]triazolo[1,5-a]pyridin-6-yl)pyridin-4-yl)phenyl)-2-methoxypyridin-3-yl)methyl)amino)piperidin-1-yl)ethan-1-one], for which the midpoint of inhibition in test [1], the IC50, lay at 0.29 nM. Also, the EC50 on human PD-L1 turned out to be 116 nM.

For the compound `COc1nc(-c2cccc(-c3ccnc(-c4cc(OC)c5nc(CNC[C@@H](C)O)nn5c4)c3Cl)c2Cl)ccc1CNC1CCN(C(C)=O)CC1` [Example 638, (R)-1-(4-(((6-(2-Chloro-3-(3-chloro-2-(2-(((2-hydroxypropyl)amino)methyl)-8-methoxy-[1,2,4]triazolo[1,5-a]pyridin-6-yl)pyridin-4-yl)phenyl)-2-methoxypyridin-3-yl)methyl)amino)piperidin-1-yl)ethan-1-one], the IC50 in test [1] was determined as 0.2 nM. Also, the EC50 on human PD-L1 came out at 94.9 nM.

For `COc1cc(-c2ncnc(-c3cccc(-c4ccc(CNCc5cnco5)c(OC)n4)c3Cl)c2Cl)ccc1CNCc1cnco1` [Example 643, 1-(6-(2-Chloro-3-(5-chloro-6-(3-methoxy-4-(((oxazol-5-ylmethyl)amino)methyl)phenyl)pyrimidin-4-yl)phenyl)-2-methoxypyridin-3-yl)-N-(oxazol-5-ylmethyl)methanamine], the IC50 in test [1] stood at 4.17 nM. This compound registered an EC50 on human PD-L1 of 1530 nM.

For the compound `COc1cc(-c2nccc(-c3cccc(NC(=O)c4ccc(CNC5CCN(C(C)=O)CC5)cn4)c3C)c2Cl)ccc1CNC1CCN(C(C)=O)CC1` [Example 645, 5-(((1-Acetylpiperidin-4-yl)amino)methyl)-N-(3-(2-(4-(((1-acetylpiperidin-4-yl)amino)methyl)-3-methoxyphenyl)-3-chloropyridin-4-yl)-2-methylphenyl)picolinamide], the midpoint of inhibition in test [1], the IC50, lay at 0.44 nM. Further, the response on human PD-L1 was half-maximal at 1410 nM (EC50).

Turning to `COc1cc(-c2nccc(-c3cccc(NC(=O)c4ccc(CNC5CCOCC5)cn4)c3C)c2Cl)ccc1CNC1CCOCC1` [Example 646, N-(3-(3-Chloro-2-(3-methoxy-4-(((tetrahydro-2H-pyran-4-yl)amino)methyl)phenyl)pyridin-4-yl)-2-methylphenyl)-5-(((tetrahydro-2H-pyran-4-yl)amino)methyl)picolinamide], half-maximal inhibition in test [1] (IC50) was put at 0.48 nM. The same compound registered an EC50 on human PD-L1 of 2710 nM.

The compound `COc1cc(-c2nccc(-c3cccc(NC(=O)c4ccc(CNCCO)cn4)c3C)c2Cl)ccc1CNCCO` [Example 648, N-(3-(3-Chloro-2-(4-(((2-hydroxyethyl)amino)methyl)-3-methoxyphenyl)pyridin-4-yl)-2-methylphenyl)-5-(((2-hydroxyethyl)amino)methyl)picolinamide] showed an IC50 in test [1] of 0.05 nM. For the same compound, on human PD-L1, the EC50 was found to be 142 nM.

The record behind these values is patent US20240246964A1 (Arbutus Biopharma Corporation, priority 2021, published 2024).
